Results reported in PMC3673990, “Physicochemical Characterization of a Thermostable Alcohol Dehydrogenase from Pyrobaculum aerophilum” (PLoS ONE, 2013).

Assays:
[1] = target: T1, PyAeADHII (Pyrobaculum aerophilum, UniProt Q8ZUP0); assay: spectrophotometric NADPH oxidation at […] nm; type: biochemical; conditions: 0.3 mM NADPH, 50 mM sodium phosphate pH 7.5, 37 °C; reduction to alpha-tetralol
T1 construct: gene PAE2687; structural zinc only (Cys-91, Cys-94, Cys-97, Cys-105); Asn-39, Ser-61, Ile-147, Arg-88 in active site
T1 sequence (Q8ZUP0 entry or part of it): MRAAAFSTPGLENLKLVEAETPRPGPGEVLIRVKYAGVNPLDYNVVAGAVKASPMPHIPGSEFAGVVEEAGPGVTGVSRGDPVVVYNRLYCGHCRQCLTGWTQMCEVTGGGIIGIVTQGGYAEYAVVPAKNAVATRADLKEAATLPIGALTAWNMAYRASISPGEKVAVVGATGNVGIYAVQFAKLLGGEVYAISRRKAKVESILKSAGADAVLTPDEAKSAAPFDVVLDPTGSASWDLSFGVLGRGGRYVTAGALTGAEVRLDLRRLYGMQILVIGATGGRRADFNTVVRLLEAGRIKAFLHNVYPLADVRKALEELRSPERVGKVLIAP

[2] = target: T1, PyAeADHII; assay: X-ray co-crystal structure, […] Å; type: binding; conditions: modelled as NADPH, NADP+ not excluded; pH 7.5

O=C1CCCc2ccccc21 [α-tetralone]
spectrophotometric NADPH oxidation at 340 nm [1]: The standard assay for the reduction reaction of α-tetralone

NC(=O)C1=CN([C@@H]2O[C@H](COP(=O)(O)OP(=O)(O)OC[C@H]3O[C@@H](n4cnc5c(N)ncnc54)[C@H](OP(=O)(O)O)[C@@H]3O)[C@@H](O)[C@H]2O)C=CC1 [NADPH]
X-ray co-crystal structure, 2.35 Å [2]: we determined the co-crystal structure of PyAeADHII monomer bound to NADPH
